Measured values published in PMC11201714, “Insights into the Effects of Ligand Binding on Leucyl-tRNA Synthetase Inhibitors for Tuberculosis: In Silico Analysis and Isothermal Titration Calorimetry Validation” (Biomolecules, 2024).
Converted amounts (≈) assume the structure as drawn.

Tests used:
[1] = test system: Leucyl-tRNA synthetase mRNA; experiment: Leucyl t-RNA synthetase gene expression inhibition (qPCR); type: cell-based; settings: A549 cells, 25 µL (10 mM) overnight, RT-PCR, in words
[2] = test system: Wild-type Mycobacterium tuberculosis biofilm; experiment: Inhibition of mycobacterial biofilm formation (crystal violet)
[3] = target: T1, leucyl t-RNA synthetase (LeuRS) (Mycobacterium tuberculosis, UniProt P9WFV1); experiment: biochemical; type: binding; settings: for Binding Enthalpy ΔH / Kd: ITC; for Kd: pH 7.0, read-out: Floating Association Constant ka (converted)
T1 construct: purchased Sigma-Aldrich

[4] = test system: Mycobacterium tuberculosis strain H37Rv (ATCC 25618); experiment: Antimycobacterial activity, well diffusion method; type: cell-based; settings: LJM agar, 6 weeks; for MIC: Mycobacterium tuberculosis
[5] = Conc. of Ligand/Protein 0.0125 µM
[6] = Conc. of Ligand/Protein 0.025 µM
[7] = Conc. of Ligand/Protein 0.050 µM
[8] = Conc. of Ligand/Protein 0.100 µM
[9] = Conc. of Ligand/Protein 0.200 µM
[10] = Conc. of Ligand/Protein 0.400 µM
[11] = Conc. of Ligand/Protein 0.800 µM
[12] = Conc. of Ligand/Protein 1.600 µM
[13] = Conc. of Ligand/Protein 3.20 µM
[14] = Conc. of Ligand/Protein 5.00 µM

T1 sequence (P9WFV1 whole entry): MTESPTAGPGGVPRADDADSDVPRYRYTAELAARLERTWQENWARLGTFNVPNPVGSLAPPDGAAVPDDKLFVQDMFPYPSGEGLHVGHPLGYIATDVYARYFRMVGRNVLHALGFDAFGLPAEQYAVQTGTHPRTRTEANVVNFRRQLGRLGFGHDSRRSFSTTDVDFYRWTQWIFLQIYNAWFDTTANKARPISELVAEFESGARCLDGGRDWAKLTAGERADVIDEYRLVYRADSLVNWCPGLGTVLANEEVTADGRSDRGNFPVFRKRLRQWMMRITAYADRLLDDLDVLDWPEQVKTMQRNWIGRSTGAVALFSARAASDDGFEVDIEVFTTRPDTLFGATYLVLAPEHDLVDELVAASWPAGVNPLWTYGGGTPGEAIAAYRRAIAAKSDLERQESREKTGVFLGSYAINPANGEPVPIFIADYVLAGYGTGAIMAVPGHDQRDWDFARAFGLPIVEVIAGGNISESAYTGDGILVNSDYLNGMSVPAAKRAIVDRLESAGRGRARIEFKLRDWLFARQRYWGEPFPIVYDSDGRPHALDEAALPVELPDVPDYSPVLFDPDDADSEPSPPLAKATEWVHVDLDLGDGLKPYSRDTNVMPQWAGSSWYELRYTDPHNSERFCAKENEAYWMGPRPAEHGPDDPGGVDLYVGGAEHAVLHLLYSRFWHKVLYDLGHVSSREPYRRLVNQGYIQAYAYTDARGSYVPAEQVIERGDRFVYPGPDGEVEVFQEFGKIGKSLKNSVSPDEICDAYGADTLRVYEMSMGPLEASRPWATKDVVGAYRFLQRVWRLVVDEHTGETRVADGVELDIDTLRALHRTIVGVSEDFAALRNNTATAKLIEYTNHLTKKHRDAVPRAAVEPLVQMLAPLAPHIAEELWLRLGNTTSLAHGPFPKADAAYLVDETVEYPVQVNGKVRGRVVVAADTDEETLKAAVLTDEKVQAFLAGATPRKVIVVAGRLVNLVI

SMILES	OD (biofilm formation) ([2]; Conc. 5.0 (unit not given))	OD (biofilm formation) ([2]; Conc. 10.0 (unit not given))	OD (biofilm formation) ([2]; Conc. 15.0 (unit not given))	OD (biofilm formation) ([2]; Conc. 20.0 (unit not given))	OD (biofilm formation) ([2]; Conc. 25.0 (unit not given))	ΔH for Ligands ([3]; Conc. of Ligand/Protein 00 µM) [kcal/mol]	ΔH for Ligands [3, 5] [kcal/mol]	ΔH for Ligands [3, 6] [kcal/mol]	ΔH for Ligands [3, 7] [kcal/mol]	ΔH for Ligands [3, 8] [kcal/mol]	ΔH for Ligands [3, 9] [kcal/mol]	ΔH for Ligands [3, 10] [kcal/mol]	ΔH for Ligands [3, 11] [kcal/mol]	ΔH for Ligands [3, 12] [kcal/mol]	ΔH for Ligands [3, 13] [kcal/mol]	ΔH for Ligands [3, 14] [kcal/mol]	Binding Enthalpy ΔH ([3]; 25 °C, pH 7.0, fitted) [kcal/mol]	Kd ([3]; 25 °C) [µM]	Zone of Inhibition [4] [mm]	MIC [4] [µg/mL]	also measured
OB1OCc2cc(F)ccc21 [AN2690]	0.4256	0.3658	0.2452	0.2048	0.0980																LeuRS gene expression (copies of mRNA per cycle) [1]: lower copies of LeuRS
CC(C)C(N)C(=O)OCC(CO)OCn1cnc2c(=O)[nH]c(N)nc21 (stereo not drawn) [Compound 1035, 2-((2-amino-6-oxo-1H-purin-9(6H)-yl)methoxy)-3-hydroxypropyl 2-amino-3-methylbutanoate]	0.7685	0.6255	0.5454	0.3256	0.1854	-20.76	-19.51	-18.06	-15.16	-13.83	-10.49	-8.164	-5.521	-3.884	-3.023	0	-11.75	23.9	13.68 ± 0.21	119.87 ± 0.1 (≈ 338 µM)	
CC(C)(N)C(=O)N[C@H](Cc1c[nH]c2ccccc12)C(=O)N[C@H](Cc1c[nH]c2ccccc12)NC=O [Compound 1054, 2-amino-N-((R)-1-(((R)-1-formamido-2-(1H-indol-3-yl)ethyl)amino)-3-(1H-indol-3-yl)-1-oxopropan-2-yl)-2-methylpropanamide]	0.5428	0.4548	0.3425	0.2186	0.1254	-19.62	-18.2	-16.31	-14.37	-12.49	-9.859	-7.106	-4.89	-3.145	-2.49	0	-11.53	0.158	18.45 ± 0.19	186.4 ± 0.21 (≈ 393 µM)	Binding Enthalpy ΔH [3]: -48.23 kL/mol; LeuRS gene expression (copies of mRNA per cycle) [1]: more effective in down-regulating the LeuRS gene; biofilm formation inhibitory activity ([2]; in words, compared to control / other compounds): higher inhibition in biofilm formation
NCC[C@H](O)C(=O)N[C@@H]1C[C@H](N)[C@@H](O[C@H]2O[C@H](CN)[C@@H](O)[C@H](O)[C@H]2O)[C@H](O)[C@H]1O[C@H]1O[C@H](CO)[C@@H](O)[C@H](N)[C@H]1O [Compound 2077, (S)-4-amino-N-((1R,2S,3S,4R,5S)-5-amino-2-(((2S,3R,4S,5S,6R)-4-amino-3,5-dihydroxy-6-(hydroxymethyl)tetrahydro-2H-pyran-2-yl)oxy)-4-(((2R,3R,4S,5S,6R)-6-(aminomethyl)-3,4,5-trihydroxytetrahydro-2H-pyran-2-yl)oxy)-3-hydroxycyclohexyl)-2-hydroxybutanamide]	0.7588	0.5358	0.3585	0.2544	0.1456	-20.11	-19.15	-17.64	-14.67	-13.18	-9.9	-7.469	-4.818	-3.215	-2.476	0	-11.92	129	15.57 ± 0.80	147.4 ± 0.8 (≈ 252 µM)	
